These results are taken from patent publication US20260234136A1, “ISOXAZOLIDINES AS RIPK1 INHIBITORS AND USE THEREOF” (GENZYME CORPORATION, priority 2023, published 2026).

In series [1] the test system is U937 cells. In words: Cellular assay in U937 cells to measure the activity of RIPK1-inhibitors on cell death (necroptosis). The series is classed as cell-based. As to conditions: Homo sapiens, U-937, 50 μM zVAD.fmk and 100 ng/ml recombinant human TNFα, overnight (18 to 24 hrs), MTS readout. The method, then:
Absorbance of formazan was read at 490 nm. The inhibitory activity of the test compound was quantified in a concentration response curve (CRC) experiment.
Compounds were obtained as 10 mM stock solutions and were diluted 1 to 10 volumes with DMSO to yield a 1 mM solution. From this solution 2 μl were diluted with 998 μl growth medium.
U937 cells were cultured in RPMI1640 Glutamax and 10% heat inactivated FBS. […] 50 μl of compound dilutions, as described in Cellular assay in U937 cells, were added and the cell suspension incubated overnight (18 to 24 hrs) at 37° C., 5% CO2 in a humidified atmosphere (95% rH).
CellTiter 96 Aqueous reagent was mixed (100 μl PMS (phenazine methosulfate) solution/2 ml MTS (3-(4,5-[…])-5-(3-carboxymethoxyphenyl)-2-(4-sulfophenyl)-2H-tetrazolium, inner salt) solution) and 20 μl were added per well. After 4 hrs incubation at 37° C. (5% CO2 95% rH) optical density was measured at 490 nm on a microplate reader (Tecan Infinite M1000).
The % inhibition is expressed as percentage of the maximal inhibition value obtained in the absence of TNFα/zVAD.fmc.

A short description of series [2]: physchem. As to conditions: 50 mM phosphate buffer, 25 °C, pH 7.4, aqueous buffer, thermodynamic from solid.

Values after ≈ are worked out from the molar mass of the structure shown. Bounds are passed on as bounds.

As usually defined, the IC50 is the concentration that inhibits the measured activity by half. Broadly, the solubility is the dissolved amount per volume that the medium holds. A low value points to a poorly soluble substance. Regarding `Cc1ncc([C@@H]2CCON2C(=O)C2CCN(c3nccc(-n4ccnc4C)n3)CC2)cc1F` [Example 20, [(3S)-3-(5-fluoro-6-methyl-3-pyridyl)isoxazolidin-2-yl]-[1-[4-(2-methylimidazol-1-yl)pyrimidin-2-yl]-4-piperidyl]methanone], the IC50 in series [1] was 1 nM. The solubility at 16 h in series [2] stood at 21.4 µM (≈ 9.66 µg/mL).
For `Cc1ncc([C@@H]2CCON2C(=O)C2CCN(c3cc(-n4ccnc4C)ncn3)CC2)cc1F` [Example 21, [(3S)-3-(5-fluoro-6-methyl-3-pyridyl)isoxazolidin-2-yl]-[1-[6-(2-methylimidazol-1-yl)pyrimidin-4-yl]-4-piperidyl]methanone] the same measures were 73 nM and more than 1110 µM.
As for `Cc1nc([C@@H]2CCON2C(=O)C2CCN(c3ncnc(-n4ccnc4C)n3)CC2)cs1` [Example 23, [1-[4-(2-methylimidazol-1-yl)-1,3,5-triazin-2-yl]-4-piperidyl]-[(3S)-3-(2-methylthiazol-4-yl)isoxazolidin-2-yl]methanone], in series [1], the IC50 stood at 1 nM. The compound further gave a solubility at 16 h in series [2] of more than 1140 µM.
For `Cn1nccc1-c1nccc(N2CCC(C(=O)N3OCC[C@H]3c3cnccn3)CC2)n1` [Example 24, [1-[2-(2-methylpyrazol-3-yl)pyrimidin-4-yl]-4-piperidyl]-[(3S)-3-pyrazin-2-ylisoxazolidin-2-yl]methanone] the same measures were 9 nM and more than 1190 µM.
For `O=C(C1CCN(c2nc(-c3cncnc3)ncc2F)CC1)N1OCC[C@H]1c1cnccn1` [Example 25, [1-(5-fluoro-2-pyrimidin-5-yl-pyrimidin-4-yl)-4-piperidyl]-[(3S)-3-pyrazin-2-ylisoxazolidin-2-yl]methanone] the same measures were 15 nM and 69.2 µM (≈ 30.2 µg/mL).
For `Cc1nccn1-c1nccc(N2CCC(C(=O)N3OCC[C@H]3c3cnccn3)CC2)n1` [Example 29, (S)-(1-(2-(2-methyl-1H-imidazol-1-yl)pyrimidin-4-yl)piperidin-4-yl)(3-(pyrazin-2-yl)isoxazolidin-2-yl)methanone] the same measures were 6 nM and more than 1190 µM.
Consider `Cc1nccn1-c1ccnc(N2CCC(C(=O)N3OCC[C@H]3c3cnccn3)CC2)n1` [Example 30, (S)-(1-(4-(2-methyl-1H-imidazol-1-yl)pyrimidin-2-yl)piperidin-4-yl)(3-(pyrazin-2-yl)isoxazolidin-2-yl)methanone], for which, in series [1], the IC50 is 3 nM. The compound also had a solubility at 16 h in series [2] of more than 1190 µM.
For `Cc1nccn1-c1cc(N2CCC(C(=O)N3OCC[C@H]3c3cnccn3)CC2)ncn1` [Example 31, (S)-(1-(6-(2-methyl-1H-imidazol-1-yl)pyrimidin-4-yl)piperidin-4-yl)(3-(pyrazin-2-yl)isoxazolidin-2-yl)methanone], in that order: 32 nM and more than 1190 µM.
For the compound `Cc1ccc([C@@H]2CCON2C(=O)C2CCN(c3nccc(-c4ncco4)n3)CC2)cn1` [Example 37, [(3S)-3-(6-methylpyridin-3-yl)-1,2-oxazolidin-2-yl]-[1-[4-(1,3-oxazol-2-yl)pyrimidin-2-yl]piperidin-4-yl]methanone], the IC50 in series [1] turned out to be 41 nM. The compound further returned a solubility at 16 h in series [2] of 34.7 µM (≈ 14.6 µg/mL).
For the compound `Cc1ccc([C@@H]2CCON2C(=O)C2CCN(c3ncnc(-c4nccs4)n3)CC2)cn1` [Example 38, [(3S)-3-(6-methylpyridin-3-yl)-1,2-oxazolidin-2-yl]-[1-[4-(1,3-thiazol-2-yl)-1,3,5-triazin-2-yl]piperidin-4-yl]methanone], the IC50 in series [1] worked out at 51 nM. Besides, the solubility at 16 h in series [2] amounted to 275 µM (≈ 120 µg/mL).
For `Cc1nc([C@@H]2CCON2C(=O)C2CCN(c3cc(-c4ncnn4C)ncn3)CC2)cs1` [Example 40, [(3S)-3-(2-methyl-1,3-thiazol-4-yl)-1,2-oxazolidin-2-yl]-[1-[6-(2-methyl-1,2,4-triazol-3-yl)pyrimidin-4-yl]piperidin-4-yl]methanone], in that order: 40 nM and 136 µM (≈ 60 µg/mL).
Regarding `Cc1ncc([C@@H]2CCON2C(=O)[C@@H]2CCN(c3cc(-c4ncnn4C)ncn3)CC23CC3)cc1F` [Example 43, [(3S)-3-(5-fluoro-6-methylpyridin-3-yl)-1,2-oxazolidin-2-yl]-[(8R)-5-[6-(2-methyl-1,2,4-triazol-3-yl)pyrimidin-4-yl]-5-azaspiro[2.5]octan-8-yl]methanone], the IC50 in series [1] stood at 57 nM. This compound registered a solubility at 16 h in series [2] of more than 1040 µM.
For `Cc1ccc([C@@H]2CCON2C(=O)[C@@H]2CCN(c3nccc(N4CCCC4=O)n3)CC23CC3)cn1` [Example 44, 1-[2-[(8R)-8-[(3S)-3-(6-methylpyridin-3-yl)-1,2-oxazolidine-2-carbonyl]-5-azaspiro[2.5]octan-5-yl]pyrimidin-4-yl]pyrrolidin-2-one] the same measures were 25 nM and 380 µM (≈ 176 µg/mL).
For `Cc1ncc([C@@H]2CCON2C(=O)C2CCN(c3ncnc(-c4ccnn4C)n3)CC2)cc1F` [Example 45, [(3S)-3-(5-fluoro-6-methylpyridin-3-yl)-1,2-oxazolidin-2-yl]-[1-[4-(2-methylpyrazol-3-yl)-1,3,5-triazin-2-yl]piperidin-4-yl]methanone] the same measures were 1 nM and 904 µM (≈ 409 µg/mL).
For `O=C1CCCN1c1ccnc(N2CCC(C(=O)N3OCC[C@H]3c3cncc(F)c3)CC2)n1` [Example 46, 1-[2-[4-[(3S)-3-(5-fluoropyridin-3-yl)-1,2-oxazolidine-2-carbonyl]piperidin-1-yl]pyrimidin-4-yl]pyrrolidin-2-one], in that order: 18 nM and more than 1140 µM.
For `O=C1CCCCN1c1ccnc(N2CCC(C(=O)N3OCC[C@H]3c3cnccn3)CC2)n1` [Example 47, 1-[2-[4-[(3S)-3-pyrazin-2-yl-1,2-oxazolidine-2-carbonyl]piperidin-1-yl]pyrimidin-4-yl]piperidin-2-one], the 50% inhibitory concentration (IC50) in series [1] was 71 nM. In series [2], the solubility at 16 h was more than 1140 µM.
For `Cc1ncc([C@@H]2CCON2C(=O)[C@@H]2CCN(c3ncnc(-c4ccnn4C)n3)CC23CC3)cc1F` [Example 48, [(3S)-3-(5-fluoro-6-methylpyridin-3-yl)-1,2-oxazolidin-2-yl]-[(8R)-5-[4-(2-methylpyrazol-3-yl)-1,3,5-triazin-2-yl]-5-azaspiro[2.5]octan-8-yl]methanone] the same measures were 3 nM and 231 µM (≈ 111 µg/mL).
For `Cc1cncc([C@@H]2CCON2C(=O)C2CCN(c3nccc(N4CCCC4=O)n3)CC2)c1` [Example 50, 1-[2-[4-[(3S)-3-(5-methylpyridin-3-yl)-1,2-oxazolidine-2-carbonyl]piperidin-1-yl]pyrimidin-4-yl]pyrrolidin-2-one], in that order: 33 nM and more than 1150 µM.
With `Cc1nc([C@@H]2CCON2C(=O)C2CCN(c3nccc(N4CCC5(CC5)C4=O)n3)CC2)cs1` [Example 52, 5-[2-[4-[(3S)-3-(2-methyl-1,3-thiazol-4-yl)-1,2-oxazolidine-2-carbonyl]piperidin-1-yl]pyrimidin-4-yl]-5-azaspiro[2.4]heptan-4-one], the IC50 in series [1] was 24 nM. The compound also gave a solubility at 16 h in series [2] of 321 µM (≈ 151 µg/mL).
For `Cc1ncc([C@@H]2CCON2C(=O)C2CCN(c3nccc(N4CCCC4=O)n3)CC2)cc1F` [Example 56, 1-[2-[4-[(3S)-3-(5-fluoro-6-methylpyridin-3-yl)-1,2-oxazolidine-2-carbonyl]piperidin-1-yl]pyrimidin-4-yl]pyrrolidin-2-one], in that order: 21 nM and more than 1100 µM.
With `O=C(C1CCN(c2nccc(N3CCCC4(CC4)C3=O)n2)CC1)N1OCC[C@H]1c1cnccn1` [Example 57, 5-[2-[4-[(3S)-3-pyrazin-2-yl-1,2-oxazolidine-2-carbonyl]piperidin-1-yl]pyrimidin-4-yl]-5-azaspiro[2.5]octan-4-one], in series [1], the IC50 came out at 59 nM. In series [2], this compound came in with a solubility at 16 h of more than 1080 µM.
On to `Cc1nc([C@@H]2CCON2C(=O)C2CCN(c3nccc(N4CCC(F)(F)C4=O)n3)CC2)cs1` [Example 59, 3,3-difluoro-1-[2-[4-[(3S)-3-(2-methyl-1,3-thiazol-4-yl)-1,2-oxazolidine-2-carbonyl]piperidin-1-yl]pyrimidin-4-yl]pyrrolidin-2-one], for which the IC50 in series [1] amounted to 80 nM. The solubility at 16 h in series [2] came out at 217 µM (≈ 104 µg/mL).
For `Cc1ncc([C@@H]2CCON2C(=O)C2CCN(c3nccc(N4CCOC4=O)n3)CC2)cc1F` [Example 65, 3-[2-[4-[(3S)-3-(5-fluoro-6-methylpyridin-3-yl)-1,2-oxazolidine-2-carbonyl]piperidin-1-yl]pyrimidin-4-yl]-1,3-oxazolidin-2-one] the same measures were 6 nM and 209 µM (≈ 95.5 µg/mL).
For `Cc1ccc([C@@H]2CCON2C(=O)[C@@H]2CCN(c3ncnc(-c4ccnn4C)n3)CC23CC3)cn1` [Example 69, [(8R)-5-[4-(2-methylpyrazol-3-yl)-1,3,5-triazin-2-yl]-5-azaspiro[2.5]octan-8-yl]-[(3S)-3-(6-methylpyridin-3-yl)-1,2-oxazolidin-2-yl]methanone] the same measures were 9 nM and 601 µM (≈ 277 µg/mL).
